What was measured:
Assay in all cases: relative viability (nuclei count vs DMSO), 5 days (fraction); higher = more cells survive
BI-2536 + Vorinostat = compound: CC[C@@H]1C(=O)N(C)c2cnc(Nc3ccc(C(=O)NC4CCN(C)CC4)cc3OC)nc2N1C1CCCC1 [BI-2536] + O=C(CCCCCCC(=O)Nc1ccccc1)NO [Vorinostat] (partner 1 µM)
Summary of the method: (§1)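 Cells from lung cancer lines were seeded into 1536-well plates and, one day later, dosed by pin tool. Treatments were either a single drug or a fixed dose of an anchor drug with five library-drug doses (not always all listed) in √10 steps. After 5 days, nuclei were stained in a one-step fixation (final 0.05% Triton X-100, 1% formaldehyde, 1 ug/ml Hoechst) and counted on 4× images, and relative viability is the treated-to-vehicle nuclei ratio, as the median of duplicate plates.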

[1] = compound: CC1CC(=O)N(C2=CN=C(N=C2N1C3CCCC3)NC4=C(C=C(C=C4)C(=O)NC5CCN(CC5)C)OC)C [NPK76-II-72-1] + CC(=O)Nc1cccc(-n2c(=O)n(C3CC3)c(=O)c3c(Nc4ccc(I)cc4F)n(C)c(=O)c(C)c32)c1 [Trametinib] (partner 0.02 µM)
Summary of the method: as §1

[2] = compound: CC1CC(=O)N(C2=CN=C(N=C2N1C3CCCC3)NC4=C(C=C(C=C4)C(=O)NC5CCN(CC5)C)OC)C [NPK76-II-72-1] + Cc1nc(NC(=O)N2CCC[C@H]2C(N)=O)sc1-c1ccnc(C(C)(C)C(F)(F)F)c1 [Alpelisib] (partner 2 µM)
Summary of the method: as §1

[3] = compound: CC1CC(=O)N(C2=CN=C(N=C2N1C3CCCC3)NC4=C(C=C(C=C4)C(=O)NC5CCN(CC5)C)OC)C [NPK76-II-72-1] + N=C(N)NC(=N)NCCc1ccccc1 [Phenformin] (partner 250 µM)
Summary of the method: as §1

Row | Cell Line | relative viability (BI-2536 + Vorinostat; first compound 0.01 µM) | relative viability (BI-2536 + Vorinostat; first compound 0.03162 µM) | relative viability (BI-2536 + Vorinostat; first compound 0.1 µM) | relative viability (BI-2536 + Vorinostat; first compound 0.3162 µM) | relative viability (BI-2536 + Vorinostat; first compound 1 µM) | relative viability ([1]; first compound 0.01 µM) | relative viability ([1]; first compound 0.03162 µM) | relative viability ([1]; first compound 0.1 µM) | relative viability ([1]; first compound 0.3162 µM) | relative viability ([1]; first compound 1 µM) | relative viability ([2]; first compound 0.01 µM) | relative viability ([2]; first compound 0.03162 µM) | relative viability ([2]; first compound 0.1 µM) | relative viability ([2]; first compound 0.3162 µM) | relative viability ([2]; first compound 1 µM) | relative viability ([3]; first compound 0.01 µM) | relative viability ([3]; first compound 0.03162 µM) | relative viability ([3]; first compound 0.1 µM) | relative viability ([3]; first compound 0.3162 µM) | relative viability ([3]; first compound 1 µM)
1 | LOU-NH91 | 0.915 | 0.865 | 0.443 | 0.311 | 0.264 | 0.76 | 0.751 | 0.777 | 0.739 | 0.829 | 0.682 | 0.72 | 0.719 | 0.563 | 0.814 | 0.621 | 0.709 | 0.706 | 0.563 | 0.884
2 | LU99A | 0.406 | 0.405 | 0.151 | 0.162 | 0.163 | 0.591 | 0.542 | 0.596 | 0.536 | 0.602 | 0.462 | 0.578 | 0.576 | 0.48 | 0.563 | 0.829 | 0.814 | 0.855 | 0.838 | 0.95
3 | LXF-289 | 0.855 | 0.684 | 0.372 | 0.0658 | 0.0936 | 0.71 | 0.691 | 0.644 | 0.703 | 0.68 | 0.987 | 1.07 | 1.05 | 1.01 | 1.05 | 0.531 | 0.587 | 0.503 | 0.516 | 0.497
4 | NCI-H522 | 0.785 | 0.933 | 0.533 | 0.277 | 0.284 | 0.811 | 0.619 | 0.747 |  | 0.79 |  |  |  |  |  | 0.557 | 0.732 | 0.639 | 0.563 | 0.699
5 | NCI-H1299 |  |  |  |  |  |  |  |  |  |  | 1.09 | 1.07 | 1.03 | 1.05 | 1.06 |  |  |  |  | 
6 | NCI-H1563 |  |  |  |  |  |  |  |  |  |  | 0.859 | 0.939 | 0.948 | 0.833 | 0.955 | 0.686 | 0.606 | 0.637 | 0.656 | 0.697
7 | NCI-H1623 |  |  |  |  |  |  |  |  |  |  |  |  |  |  |  | 0.562 | 0.563 | 0.622 | 0.324 | 0.622
8 | NCI-H1648 | 0.331 | 0.596 | 0.264 | 0.189 | 0.21 | 0.503 | 0.504 | 0.369 | 0.384 | 0.494 |  |  |  |  |  |  |  |  |  | 
9 | NCI-H1650 | 0.624 | 0.555 | 0.276 | 0.169 | 0.142 | 0.523 | 0.591 | 0.59 | 0.491 | 0.585 |  |  |  |  |  | 0.361 | 0.374 | 0.468 | 0.349 | 0.396
10 | NCI-H1703 |  |  |  |  |  |  |  |  |  |  | 0.316 | 0.343 | 0.35 | 0.314 | 0.4 |  |  |  |  | 
11 | NCI-H1792 |  |  |  |  |  |  | 0.469 | 0.478 | 0.378 | 0.506 | 0.747 | 0.793 | 0.668 | 0.711 | 0.767 | 0.289 | 0.367 | 0.16 | 0.287 | 0.422
12 | NCI-H2342 |  | 0.705 | 0.79 | 0.445 | 0.385 | 0.871 | 0.655 | 0.909 | 0.809 | 0.461 |  |  |  |  |  | 0.606 | 0.472 | 0.675 | 0.394 | 0.623
13 | SW 900 | 0.445 | 0.598 | 0.481 | 0.159 | 0.218 | 0.871 | 1.07 | 0.66 | 0.587 | 1.11 |  |  |  |  |  | 0.559 | 0.73 | 0.657 | 0.664 | 0.699

— the supplement of paper PMC10307832
